In brackets after ≈: the same amount, converted by molar mass. Several values for one entry are separate records, joined by “and”; a condition that tells them apart may be missing. Equal entries are not always repeated. Marks after values point to notes of the source that are not given here. Each block holds one compound with its values, some of them ahead of it.
Key:
[1] = tested on: PDEIII; assay: PDEIII inhibition; assay type: biochemical; conditions: more potent than anagrelide itself
[2] = Solubility; assay type: physicochemical
[3] = Comparative bioavailability study in the dog; assay type: in vivo
Text: The potential benefit of improved water solubility on the absorption of these open-ring analogues was shown in a comparative bioavailability study in the dog. Using the unsubstituted ethyl-5,6-dichloro-3,4-dihydro-2-(1H)-iminoquinazoline-3-acetate HBr as a model compound, a comparison was made of the systemic availability of anagrelide when given as this compound or as anagrelide itself in equimolar doses ([…]).

[4] = Conversion of ring open prodrug to anagrelide in human plasma (LC/MS-MS); assay type: in vitro ADME; conditions: human plasma spiked 100 ng/mL, room temperature, first point of measurement (immediately after mixing)
Protocol: Such prodrugs are likely to be extremely rapidly and completely cyclised in plasma to the closed ring 3-alkylanagrelide analogues. […] Human plasma was spiked with anagrelide prodrug (final concentration 100 ng/mL). Immediately after mixing, and at 15, 30, 45 and 60 minutes afterward samples were analysed for anagrelide prodrug and anagrelide.

[5] = male dogs, single oral (capsule), anagrelide 6.1 mg/kg or ester prodrug 7.5 mg/kg, individual dogs
[6] = male dogs, single oral (capsule), anagrelide 6.1 mg/kg or ester prodrug 7.5 mg/kg, individual dogs, listed as Ester prodrug of anagrelide, HBr
[7] = male dogs, single oral (capsule), anagrelide 6.1 mg/kg or ester prodrug 7.5 mg/kg, median

Compound: O=C1NC2=Nc3ccc(Cl)c(Cl)c3CN2C1O (stereo not drawn) [3-hydroxyanagrelide]
potency as an inhibitor of PDEIII relative to anagrelide [1]: ~40 fold

solubility ([2]; aqueous solution, aqueous buffer, at pH 11.4): ~1000 µg/mL (≈ 3900 µM)
solubility ([2]; aqueous solution, aqueous buffer, pH range of 4-8): < 10 µg/mL
solubility ([2]; simulated gastric fluid, in 0.1M HCl): ~170 µg/mL (≈ 664 µM)
Tmax of anagrelide [3, 5]: 2 h
Compound: O=C1CN2Cc3c(ccc(Cl)c3Cl)N=C2N1 [anagrelide, 6,7-dichloro-1,5-dihydroimidazo[2,1-b]-quinazolin-2(3H)-one]
k of anagrelide [3, 5]: 0.4459 ^c hours^−1 and 0.3119 ^c hours^−1 and 0.1953 ^d hours^−1

Compound: Br.CCOC(=O)CN1Cc2c(ccc(Cl)c2Cl)NC1=N [ethyl-5,6-dichloro-3,4-dihydro-2-(1H)-iminoquinazoline-3-acetate HBr]
prodrug remaining in human plasma (conversion to anagrelide) [4]: no prodrug could be found
Cmax for anagrelide, range over dogs ([3]; dog, oral, equimolar doses): 170-418 ngmL^−1
t½ of 3-hydroxy anagrelide, calculated as ln2/(mean rate constant) ([3]; male dogs, single oral (capsule), anagrelide 6.1 mg/kg or ester prodrug 7.5 mg/kg): 2.1 ^e hours
AUCinfin of 3-hydroxy anagrelide [3, 6]: 1290 ^c ng · h/mL
AUCinfin of anagrelide [3, 6]: 1440 ^d ng · h/mL
k of 3-hydroxy anagrelide [3, 6]: 0.1235 ^c hours^−1
k of anagrelide [3, 6]: 0.1789 ^d hours^−1
t½ of 3-hydroxy anagrelide [3, 6]: 5.6 ^c hours
t½ of anagrelide [3, 6]: 3.9 ^d hours
Tmax of 3-hydroxy anagrelide, median [3, 7]: 3.5 ^b hours
Tmax of anagrelide, median [3, 7]: 3.5 ^b hours
t½ of anagrelide, calculated as ln2/(mean rate constant) ([3]; male dogs, single oral (capsule), ester prodrug 7.5 mg/kg): 1.8 ^f hours

— patent publication US20110130413A1, “SUBSTITUTED QUINAZOLINES” (Shire LLC, priority 2008, published 2011)
